What was measured:
Type in all cases: cell-based, human
U251 = assay: NCI-60 five-dose assay (CNS cancer); settings: SRB
SR = assay: NCI-60 five-dose assay (leukemia); settings: 48 h, SRB
OVCAR-4 = assay: NCI-60 five-dose assay (ovarian cancer); settings: 48 h, SRB
RXF 393 = assay: NCI-60 five-dose assay (renal cancer); settings: 48 h, SRB
HCT-15 = assay: NCI-60 five-dose assay (colon cancer); settings: 48 h, SRB
TK-10 = assay: NCI-60 five-dose assay (renal cancer); settings: 48 h, SRB
SN12C = assay: NCI-60 five-dose assay (renal cancer); settings: 48 h, SRB
OVCAR-5 = assay: NCI-60 five-dose assay (ovarian cancer); settings: 48 h, SRB
SNB-75 = assay: NCI-60 five-dose assay (CNS cancer); settings: 48 h, SRB
MDA-MB-435 = assay: NCI-60 five-dose assay (melanoma); settings: 48 h, SRB
SF-295 = assay: NCI-60 five-dose assay (CNS cancer); settings: 48 h, SRB
SF-268 = assay: NCI-60 five-dose assay (CNS cancer); settings: 48 h, SRB
NCI-H226 [1] = assay: NCI-60 five-dose assay (non-small cell lung cancer); settings: 48 h, SRB
KM12 = assay: NCI-60 five-dose assay (colon cancer); settings: 48 h, SRB
NCI-H23 = assay: NCI-60 one-dose screen (non-small cell lung cancer); settings: 10 µM single dose, 48 h
Method: (§1) The obtained quinolinequinones were submitted to NCI, Bethesda, USA, and, as per standard protocol of NCI, all compounds were evaluated for their antiproliferative activity at single-dose assay (10 µM concentration in DMSO) on a panel of 60 cancer cell lines derived from leukemia, non-small-cell lung, colon, CNS, melanoma, ovarian, renal, prostate, and breast, as per protocol. Tested compounds were added to the microtiter culture plates followed by incubation for 48 h at 37 °C. Sulforhodamine B (SRB), a protein-binding dye, is used for endpoint determination. The percent of the growth of the treated cells was determined in comparison to the untreated control cells and the results of each tested compound were reported. Data from one-dose experiments pertain to the percentage growth at 10 μM [16, 17, 18].

EKVX = assay: as above; settings: 10 µM single dose, 48 h
Method: as §1

NCI-H322M [2] = assay: as above; settings: 10 µM single dose, 48 h
Method: as §1

NCI-H460 = assay: as above; settings: 10 µM single dose
Method: as §1

NCI-H226 [3] = assay: as above; settings: 10 µM single dose, 48 h
Method: as §1

HOP-92 = assay: as above; settings: 10 µM single dose, 48 h
Method: as §1

A549/ATCC = assay: as above; settings: 10 µM single dose, 48 h
Method: as §1

NCI-H522 [4] = assay: as above; settings: 10 µM single dose, 48 h
Method: as §1

HOP-62 = assay: as above; settings: 10 µM single dose
Method: as §1

SK-MEL-2 = assay: NCI-60 five-dose assay (melanoma); settings: 48 h, SRB
T-47D = assay: NCI-60 five-dose assay (breast cancer); settings: 48 h, SRB
NCI-H522 [5] = assay: NCI-60 five-dose assay (non-small cell lung cancer); settings: 48 h, SRB
M14 = assay: NCI-60 five-dose assay (melanoma); settings: 48 h, SRB
NCI-H322M [6] = assay: NCI-60 five-dose assay (non-small cell lung cancer); settings: 48 h, SRB
HL-60(TB) = assay: NCI-60 five-dose assay (leukemia); settings: 48 h, SRB
COLO 205 = assay: NCI-60 five-dose assay (colon cancer); settings: 48 h, SRB
CAKI-1 = assay: NCI-60 five-dose assay (renal cancer); settings: 48 h, SRB
BT-549 = assay: NCI-60 five-dose assay (breast cancer); settings: 48 h, SRB
A498 = assay: NCI-60 five-dose assay (renal cancer); settings: 48 h, SRB
UO-31 = assay: NCI-60 five-dose assay (renal cancer); settings: 48 h, SRB
[7] = Homo sapiens, read-out: LC50 (the source's name)

Question: What does the source list for `COc1cc(NC2=C(Cl)C(=O)c3nc(C)ccc3C2=O)cc(OC)c1` [AQQ5]?
Answer: TGI (U251; 48 h): 4.44 µM; GI50 (U251; Homo sapiens, U-251, 48 h): 1.92 µM; LC50 (concentration killing 50% of cells) (U251; Homo sapiens, U-251, 48 h): 10.8 µM; TGI (SR): 2.43 µM; GI50 (SR; Homo sapiens): 0.35 µM; CC50 (SR; [7]): > 100 µM; TGI (OVCAR-4): 2.82 µM; GI50 (OVCAR-4; Homo sapiens): 1.4 µM; LC50 (concentration killing 50% of cells) (OVCAR-4; Homo sapiens): 5.66 µM; TGI (RXF 393): 2.99 µM; GI50 (RXF 393; Homo sapiens): 1.63 µM; LC50 (RXF 393; Homo sapiens): 5.48 µM; TGI (HCT-15): 3.92 µM; GI50 (HCT-15; Homo sapiens): 1.54 µM; TGI (TK-10): 3.78 µM; GI50 (TK-10; Homo sapiens): 2.32 µM; LC50 (concentration killing 50% of starting cells) (TK-10; Homo sapiens): 6.15 µM; TGI (SN12C): 3.25 µM; GI50 (SN12C; Homo sapiens): 1.71 µM; LC50 (concentration killing 50% of starting cells) (SN12C; Homo sapiens): 6.19 µM; TGI (OVCAR-5): 5.79 µM; GI50 (OVCAR-5; Homo sapiens): 2.38 µM; LC50 (lethal concentration 50%) (OVCAR-5; Homo sapiens): 23.7 µM; TGI (SNB-75): 5.37 µM; GI50 (SNB-75; Homo sapiens): 1.94 µM; LC50 (50% lethal concentration) (SNB-75; Homo sapiens): 23.2 µM; TGI (MDA-MB-435): 3.57 µM; GI50 (MDA-MB-435; Homo sapiens): 1.72 µM; CC50 (MDA-MB-435; [7]): 7.39 µM; TGI (SF-295): 5.41 µM; GI50 (SF-295; Homo sapiens): 1.99 µM; LC50 (50% lethal concentration) (SF-295; Homo sapiens): 20.8 µM; TGI (SF-268): 14.4 µM; GI50 (SF-268; Homo sapiens): 3.25 µM; LC50 (concentration killing 50% of cells) (SF-268; Homo sapiens): 72.7 µM; TGI (NCI-H226 [1]): 8.35 µM; GI50 (NCI-H226 [1]; Homo sapiens): 2.82 µM; LC50 (NCI-H226 [1]; Homo sapiens): 46.1 µM; TGI (KM12): 26.6 µM; GI50 (KM12; Homo sapiens): 13 µM; CC50 (KM12; [7]): 54.7 µM; GP (growth percentage) (NCI-H23): −55.61%; GP (growth percentage) (EKVX): 74.66%; GP (growth percentage) (NCI-H322M [2]): 89.75%; GP (growth percentage) (NCI-H460; 48 h): 2.02%; inhibition at 10 µM (NCI-H460; Homo sapiens): 98%; GP (growth percentage) (NCI-H226 [3]): 68.59%; GP (growth percentage) (HOP-92): −12.23%; GP (growth percentage) (A549/ATCC): 42.41%; GP (growth percentage) (NCI-H522 [4]): −80.61%; GP (growth percentage) (HOP-62; 48 h): 0.85%; inhibition at 10 µM (HOP-62; Homo sapiens): 99.2%; TGI (SK-MEL-2): 3.10 µM; GI50 (SK-MEL-2; Homo sapiens): 1.59 µM; CC50 (SK-MEL-2; [7]): 6.03 µM; TGI (T-47D): 3.62 µM; GI50 (T-47D; Homo sapiens, T47D): 1.5 µM; CC50 (T-47D; Homo sapiens, T47D, read-out: LC50 (the source's name)): 8.74 µM; TGI (NCI-H522 [5]): 3.06 µM; GI50 (NCI-H522 [5]; Homo sapiens): 1.56 µM; LC50 (NCI-H522 [5]; Homo sapiens): 6.02 µM; TGI (M14): 3.09 µM; GI50 (M14; Homo sapiens): 1.69 µM; LC50 (M14; Homo sapiens): 5.66 µM; TGI (NCI-H322M [6]): 12.8 µM; GI50 (NCI-H322M [6]; Homo sapiens): 3.42 µM; CC50 (NCI-H322M [6]; [7]): 35.8 µM; TGI (HL-60(TB)): 4.65 µM; GI50 (HL-60(TB); Homo sapiens): 1.38 µM; CC50 (HL-60(TB); [7]): > 100 µM; TGI (COLO 205): 3.08 µM; GI50 (COLO 205; Homo sapiens): 1.68 µM; CC50 (COLO 205; [7]): 5.63 µM; TGI (CAKI-1): 3.15 µM; GI50 (CAKI-1; Homo sapiens): 1.76 µM; LC50 (lethal concentration, 50% net cell kill) (CAKI-1; Homo sapiens): 5.65 µM; TGI (BT-549): 3.40 µM; GI50 (BT-549; Homo sapiens): 1.97 µM; LC50 (concentration giving 50% net cell kill) (BT-549; Homo sapiens): 5.87 µM; TGI (A498): 11.4 µM; GI50 (A498; Homo sapiens): 2.35 µM; LC50 (A498; Homo sapiens): 33.8 µM; TGI (UO-31): 3.06 µM; GI50 (UO-31; Homo sapiens): 1.69 µM; LC50 (lethal concentration 50%) (UO-31; Homo sapiens): 5.53 µM
